Assay results reported in ChEMBL document CHEMBL1137053, “QSAR modeling of the MAO inhibitory activity of xanthones derivatives” (Bioorg Med Chem Lett, 2004).

What follows are compounds tested against T1, Amine oxidase [flavin-containing] A (Homo sapiens, UniProt P21397) (assay: Concentration required to inhibit monoamine oxidase activity by 50%).
T1 sequence (P21397 whole entry): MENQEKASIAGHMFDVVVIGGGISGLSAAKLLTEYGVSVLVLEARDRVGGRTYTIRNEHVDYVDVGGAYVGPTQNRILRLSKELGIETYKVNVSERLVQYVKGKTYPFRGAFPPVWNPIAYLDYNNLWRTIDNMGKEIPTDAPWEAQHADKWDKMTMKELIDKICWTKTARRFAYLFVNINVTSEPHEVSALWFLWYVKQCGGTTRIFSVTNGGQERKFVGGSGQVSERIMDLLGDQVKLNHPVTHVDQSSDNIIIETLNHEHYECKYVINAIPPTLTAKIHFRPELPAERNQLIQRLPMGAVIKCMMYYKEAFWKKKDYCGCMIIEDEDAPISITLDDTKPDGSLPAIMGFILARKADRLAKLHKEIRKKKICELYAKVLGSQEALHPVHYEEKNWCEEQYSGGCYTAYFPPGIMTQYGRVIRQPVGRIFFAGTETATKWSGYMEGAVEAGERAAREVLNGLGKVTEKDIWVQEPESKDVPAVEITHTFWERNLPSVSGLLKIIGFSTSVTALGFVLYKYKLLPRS
Cc1c(O)c(Br)c2oc3ccccc3c(=O)c2c1O was tested, and the IC50 was 14.9 µM. In the case of O=c1c2c(O)cc(O)cc2oc2c(O)ccc(O)c12 [DEMETHYLBELLIDIFOLIN], the IC50 is reported as 13 µM. Work on COc1cc2oc3c(OC)cccc3c(=O)c2c(OC)c1OC yielded an IC50 of 37 µM. For O=c1c2ccccc2oc2cc(O)ccc12, the IC50 was 1.1 µM. In the case of COc1c(O)cc2oc3c(O)cccc3c(=O)c2c1O, the IC50 is reported as 2.7 µM. With COc1ccc2c(=O)c3ccccc3oc2c1OC the IC50 was 31 µM. For CC(C)=CCc1cc(O)c2oc3c(O)cccc3c(=O)c2c1O, the IC50 was 3.3 µM. In the case of O=c1c2ccc(O)cc2oc2c(O)cccc12, the IC50 is reported as 4.5 µM. Compound COc1cccc2oc3c(O)cccc3c(=O)c12 has an IC50 of 51 µM. Cc1c(O)c(Cl)c2oc3ccccc3c(=O)c2c1O was tested, and the IC50 was 27 µM. In the case of COc1ccc2oc3ccccc3c(=O)c2c1, the IC50 is reported as 5.3 µM. COc1cc(O)c2c(=O)c3ccccc3oc2c1 showed an IC50 of 0.11 µM. CC(C)=CCC/C(C)=C\Cc1c(O)cc(O)c2c(=O)c3cccc(O)c3oc12 gave an IC50 of 37 µM. Work on O=c1c2cccc(O)c2oc2cc(O)cc(O)c12 yielded an IC50 of 3.8 µM. Compound COc1cc(O)c2oc3c(C)ccc(OC)c3c(=O)c2c1 has an IC50 of 24 µM. With COc1c(O)cc2oc3c(OC)c(O)ccc3c(=O)c2c1O the IC50 was 32 µM. COc1ccc2c(=O)c3ccccc3oc2c1 gave an IC50 of 0.18 µM. COc1ccc2c(=O)c3ccccc3oc2c1O was tested, and the IC50 was 18 µM. Cc1c(O)cc(O)c2c(=O)c3ccccc3oc12 showed an IC50 of 4.3 µM. With CC(C)=CCc1cc(O)c2c(=O)c3cccc(O)c3oc2c1O the IC50 was 40 µM. In the case of COc1cccc2c(=O)c3ccccc3oc12, the IC50 is reported as 30 µM. Compound COc1cccc2oc3ccccc3c(=O)c12 has an IC50 of 0.9 µM. COc1cc(O)c2c(=O)c3cccc(OC)c3oc2c1 was tested, and the IC50 was 29 µM. With O=c1c2ccccc2oc2ccc(O)cc12 the IC50 was 3.8 µM. For COc1cc(O)c2c(=O)c3c(O)c(O)ccc3oc2c1 [GENTIAKOCHIANIN], the IC50 was 8.5 µM. O=c1c2ccccc2oc2ccccc12 [XANTHONE] was tested, and the IC50 was 0.84 µM. COc1cc(O)c2c(=O)c3c(OC)c(OC)ccc3oc2c1 [DECUSSATIN] was tested, and the IC50 was 19 µM. For COc1cccc2c(=O)c3ccc(O)cc3oc12, the IC50 was 23 µM. COc1ccc2c(=O)c3cccc(OC)c3oc2c1 showed an IC50 of 36 µM. COc1cc(OC)c2c(=O)c3cccc(OC)c3oc2c1 gave an IC50 of 58 µM. O=c1c2cc(O)c(O)cc2oc2cc(O)cc(O)c12 gave an IC50 of 25 µM. Cc1c(O)cc2oc3ccccc3c(=O)c2c1O showed an IC50 of 3.7 µM. Compound O=c1c2cccc(O)c2oc2cccc(O)c12 has an IC50 of 0.73 µM. Compound O=c1c2ccccc2oc2cccc(O)c12 has an IC50 of 0.31 µM. For COc1cc(O)c2c(=O)c3cccc(O)c3oc2c1, the IC50 was 0.04 µM. Work on COc1c(O)cc2oc3c(OC)cccc3c(=O)c2c1O yielded an IC50 of 51 µM. In the case of COc1c(O)ccc2c(=O)c3ccccc3oc12, the IC50 is reported as 65 µM. O=c1c2cc(O)ccc2oc2cc(O)cc(O)c12 showed an IC50 of 8 µM. O=c1c2ccccc2oc2c(O)cccc12 showed an IC50 of 1.3 µM. With COc1cc(O)c2c(=O)c3c(O)ccc(O)c3oc2c1 [BELLIDIFOLIN] the IC50 was 0.66 µM. Work on O=c1c2c(O)cc(O)cc2oc2ccc(O)c(O)c12 yielded an IC50 of 24 µM. In the case of COc1cc(OC)c2c(=O)c3ccccc3oc2c1, the IC50 is reported as 20.2 µM.
